“Also recorded” adds a separate entry of the source. Each block holds one compound with its values, some of them ahead of it.
How the values were obtained:
[1] = Pharmacokinetics of four flavonoids in rat plasma after oral aerial part of G. uralensis extract (HPLC-MS/MS); format: in vivo, Sprague Dawley (SD) rats; details: for AUC(0-inf) / AUC(0-t) / Cmax / Tmax / half-life / MRT last / MRT inf: Sprague Dawley; for MRT last: day 31, n = 6, read-out: MRT0–t; for MRT inf: day 31, n = 6, read-out: MRT0–∞; for time at which steady state was reached: 3 h after daily oral extract 1 g/kg
Protocol: For clean-up, the plasma samples (50 μL) were vortex-mixed with 10 μL of IS and 250 μL of methanol. […] At last, 5 μL of the resulting supernatant was applied to HPLC–MS/MS analysis.
(§1) The analysis was performed on the AB SCIEX QTRAP 5500 (USA) triple quadrupole mass spectrometer, which was performed in SRM and positive and negative ionization modes. LC separation is run on XSelect HSS T3 analytical column (2.1 × 100 mm, 2.5 μm, Waters), equipped with Exion LC AD system (AB Sciex) infinite binary pump. Acetonitrile was used as solvent A and 0.1% formic acid aqueous solution was used as solvent B and the flow rate was 0.1 mL/min. Using gradient elution, the initial condition is that 90% solvent B drops to 0% B within 17 min and maintains it for 2 min, returns to the initial […] at 19.1 min, and ends an analysis at 22 min. The temperature of the column oven is maintained at 35 °C. The sample is kept at 10 °C and the injection volume is 5 μL. The MS parameters are as follows: ESI ion source temperature is 500 °C; curtain gas: 30 psi; collision-activated dissociation (CAD) gas settings: medium, ion spray voltage: −4500 V, ion gas 1 and 2: 50 psi. The data acquisition software is AB SCIEX Analyst 1.7.1. The specific parameters are as Table 8.

[2] = Prostate distribution of four flavonoids after oral aerial part of G. uralensis (HPLC-MS/MS); format: in vivo, Sprague Dawley (SD) rats; details: rats, 0.5-8 h after oral extract 1 g/kg on day 31, n = 6
Protocol: as §1

[3] = Stability test of analytes in rat prostate homogenate QC samples; format: in vitro ADME; details: for Stability, Mean ± S.D., 24 h at room temperature, low QC / Stability, Mean ± S.D., freeze-thaw cycles, low QC: nominal puerarin 0.100, luteolin 0.200, kaempferol 2.000, pinocembrin 2.000, n = 3; for Stability, Mean ± S.D., 24 h at room temperature, medium QC / Stability, Mean ± S.D., freeze-thaw cycles, medium QC: nominal puerarin 1.000, luteolin 5.000, kaempferol 100.000, pinocembrin 50.000, n = 3; for Stability, Mean ± S.D., 24 h at room temperature, high QC / Stability, Mean ± S.D., freeze-thaw cycles, high QC: nominal puerarin 5.000, luteolin 10.000, kaempferol 200.000, pinocembrin 100.000, n = 3; for Stability, Mean ± S.D., freeze-thaw cycles, low QC / Stability, Mean ± S.D., freeze-thaw cycles, medium QC / Stability, Mean ± S.D., freeze-thaw cycles, high QC: three freeze-thaw cycles
Protocol: All of the solutions were stored at 4℃ until analysis. Stability investigation of the four components in the plasma and prostate homogenates was performed by analyzing replicates (n = 3) of the three levels of QC samples under three different conditions. Room temperature stability was assessed after the exposure of untreated QC samples at room temperature for 24 h. Freeze and thaw stability was evaluated after three freeze (−20 °C)–thaw (room temperature) cycles.

[4] = Qualitative detection of prototype flavones and metabolites in rat plasma, prostate, urine and feces by UPLC-Q-Exactive Orbitrap-MS after oral aerial part of G. uralensis; details: rats, single oral 1 g/kg extract; for Distribution of protoflavones: Plasma: mixed plasma 0.25-48 h, + not defined
Protocol: Forty-eight rats were randomly divided into four groups, namely plasma (n = 6), prostate (n = 30, there were five time points, with six individuals for each time point), excretion (n = 6) and blank (n = 6). The plasma, prostate, and excretion groups were gavaged with 1 g/kg of Glycyrrhiza uralensis sample, whereas the blank group was administered 0.5% CMC-Na. Biological samples were collected after the mice were dosed once.
The tube was placed at room temperature for 1 h; then, it was centrifuged at 4 °C (10,000 rpm, 10 min). Upper plasma of different time points was separated for 50 μL and mixed and shaken well. Mixed plasma was collected at 50 μL and the plasma samples (50 μL) were vortex-mixed with 250 μL of methanol. The solution was centrifuged at 10,000 rpm for 10 min to separate the protein from the organic phase, and then the upper supernatant was collected. Then, the supernatant was transferred and evaporated to dryness under a gentle stream of nitrogen at room temperature. The residue was reconstituted in 50 µL methanol, mixed for 1 min, and centrifuged at 10,000 rpm for 10 min. At last, 20 μL of the resulting supernatant was applied to UPLC–MS/MS analysis.
UPLC-Q-Exactive Orbitrap-MS analysis was performed on a Dionex Ultimate 3000 ultra-high performance liquid system (ThermoFisher) consisting of a binary pump, a DAD detector, a column chamber, an automatic sampler and an online degasser. The sample was separated on a Waters ACQUITY UPLC HSS T3 C18 column (2.1 mm × 100 mm, 1.8 μm), with a column temperature of 30 °C, automatic sampler temperature of 10 °C, and flow rate of 0.2 mL·min^−1. The mobile phases A and B were acetonitrile with 0.1% formic acid and aqueous solution with 0.1% formic acid, respectively. […] The injection volume of the sample was 5 μL.
The MS conditions were as follows: detection mode: positive and negative ion modes; scan range: 100–1200; resolution: 70,000; sheath gas flow rate: 40; aux gas flow rate: 15; spray voltage [kV]: 3.20; capillary temp: 320 °C; aux gas heater temp: 350 °C; AGC target: 3,000,000; maximum IT (ms): 100; sheath gas: 40/45; aux gas flow: 11/10; sweep gas: 0; S-lens RF level: 55; and aux gas heater temperature: 220 °C.

primary liver cell model = test system: primary liver cell model; set-up: method as in Lu et al. [65]; details: ref Lu et al. [65]; cited from earlier work
[5] = oral extract 1 g/kg every day, day 31, n = 6

Compound: O=c1c(O)c(-c2ccc(O)cc2)oc2cc(O)cc(O)c12 [Kaempferol]
- AUC(0-inf) [1, 5]: 23.8 ± 0.86 ng·h/mL
- AUC(0-t) [1, 5]: 18.8 ± 1.18 ng·h/mL
- Cmax [1, 5]: 1.27 ± 0.06 ng/mL
- Tmax [1, 5]: 4 ± 0.17 h
- half-life [1, 5]: 19 ± 1.46 h
- MRT last ([1]; oral extract 1 g/kg every day): 20.1 ± 0.84 h
- MRT inf ([1]; oral extract 1 g/kg every day): 31.8 ± 1.22 h
- concentration in prostate (ranking, in words) [2]: highest concentration; also recorded: kaempferol > pinocembrin > luteolin > puerarin; also recorded: particularly high
- Stability, Mean ± S.D., 24 h at room temperature, low QC [3]: 2.000 ± 0.265 μg·mL^−1/μg·g^−1
- Stability, Mean ± S.D., 24 h at room temperature, medium QC [3]: 99.133 ± 3.557 μg·mL^−1/μg·g^−1
- Stability, Mean ± S.D., 24 h at room temperature, high QC [3]: 201.667 ± 3.215 μg·mL^−1/μg·g^−1
- Stability, Mean ± S.D., freeze-thaw cycles, low QC [3]: 1.833 ± 0.058 μg·mL^−1/μg·g^−1
- Stability, Mean ± S.D., freeze-thaw cycles, medium QC [3]: 96.667 ± 2.082 μg·mL^−1/μg·g^−1
- Stability, Mean ± S.D., freeze-thaw cycles, high QC [3]: 202.333 ± 2.082 μg·mL^−1/μg·g^−1

Compound: COc1ccc(-c2coc3cc(O[C@@H]4O[C@H](CO)[C@@H](O)[C@H](O)[C@H]4O)ccc3c2=O)cc1 [Ononin]
- Distribution of protoflavones: Plasma [4]: detected

Compound: O=c1cc(-c2ccc(O)c(O)c2)oc2cc(O)cc(O)c12 [Luteolin]
- time at which steady state was reached [1]: 9 days
- AUC(0-inf) [1, 5]: 51.6 ± 1.98 ng·h/mL
- Tmax [1, 5]: 0.87 ± 0.05 h
- half-life [1, 5]: 31.1 ± 1.17 h
- MRT last ([1]; oral extract 1 g/kg every day): 20.7 ± 1.91 h
- MRT inf ([1]; oral extract 1 g/kg every day): 44 ± 1.72 h
- AUC0–t [1, 5]: 35.01 ± 0.81 ng·h/mL
- concentration in prostate (ranking, in words) [2]: kaempferol > pinocembrin > luteolin > puerarin
- Stability, Mean ± S.D., 24 h at room temperature, low QC [3]: 0.194 ± 0.005 μg·mL^−1/μg·g^−1
- Stability, Mean ± S.D., 24 h at room temperature, medium QC [3]: 4.963 ± 0.118 μg·mL^−1/μg·g^−1
- Stability, Mean ± S.D., 24 h at room temperature, high QC [3]: 9.900 ± 0.458 μg·mL^−1/μg·g^−1
- Stability, Mean ± S.D., freeze-thaw cycles, low QC [3]: 0.213 ± 0.031 μg·mL^−1/μg·g^−1
- Stability, Mean ± S.D., freeze-thaw cycles, medium QC [3]: 4.833 ± 0.058 μg·mL^−1/μg·g^−1
- Stability, Mean ± S.D., freeze-thaw cycles, high QC [3]: 10.433 ± 0.551 μg·mL^−1/μg·g^−1
- Phase II metabolites, share of the dosage (primary liver cell model): 54%

Compound: O=c1c(-c2ccc(O)cc2)coc2c([C@@H]3O[C@H](CO)[C@@H](O)[C@H](O)[C@H]3O)c(O)ccc12 [Puerarin]
- AUC(0-inf) [1, 5]: 242 ± 2.45 ng·h/mL
- AUC(0-t) [1, 5]: 238 ± 23.4 ng·h/mL
- Cmax [1, 5]: 23.8 ± 1.05 ng/mL
- Tmax [1, 5]: 0.5 ± 0.04 h
- MRT last ([1]; oral extract 1 g/kg every day): 14.4 ± 1.21 h
- MRT inf ([1]; oral extract 1 g/kg every day): 15.1 ± 1.71 h
- t1/2 [1, 5]: 6.43 ± 0.20 h
- concentration in prostate (ranking, in words) [2]: kaempferol > pinocembrin > luteolin > puerarin
- Stability, Mean ± S.D., 24 h at room temperature, medium QC [3]: 1.097 ± 0.138 μg·mL^−1/μg·g^−1
- Stability, Mean ± S.D., 24 h at room temperature, high QC [3]: 4.940 ± 0.056 μg·mL^−1/μg·g^−1
- Stability, Mean ± S.D., freeze-thaw cycles, low QC [3]: 0.100 ± 0.005 μg·mL^−1/μg·g^−1
- Stability, Mean ± S.D., freeze-thaw cycles, high QC [3]: 5.057 ± 0.224 μg·mL^−1/μg·g^−1
- Distribution of four representative flavonoids and metabolites: Plasma ([4]; + not defined (detected)): detected
- Distribution of protoflavones: Plasma [4]: detected

Compound: O=c1c(O[C@@H]2O[C@H](CO)[C@@H](O)[C@H](O)[C@H]2O)c(-c2ccc(O)cc2)oc2cc(O)cc(O)c12 [Astragalin]
- Distribution of protoflavones: Plasma [4]: detected

Compound: O=c1c(O[C@@H]2O[C@H](CO)[C@H](O)[C@H](O)[C@H]2O)c(-c2ccc(O)c(O)c2)oc2cc(O)cc(O)c12 [Hyperoside]
- Distribution of protoflavones: Plasma [4]: detected

The next lines start with results.

- Distribution of protoflavones: Plasma [4]: detected
Compound: O=c1cc(-c2ccc(O)cc2)oc2c([C@@H]3O[C@H](CO)[C@@H](O)[C@H](O)[C@H]3O)c(O)cc(O)c12 [Vitexin]

- Distribution of protoflavones: Plasma [4]: detected
Compound: C[C@@H]1O[C@@H](OC[C@H]2O[C@@H](Oc3c(-c4ccc(O)c(O)c4)oc4cc(O)cc(O)c4c3=O)[C@H](O)[C@@H](O)[C@@H]2O)[C@H](O)[C@H](O)[C@H]1O [Rutin]

- time at which steady state was reached [1]: 5 days
- AUC(0-inf) [1, 5]: 23.8 ± 1.29 ng·h/mL
- AUC(0-t) [1, 5]: 21.8 ± 0.73 ng·h/mL
- Cmax [1, 5]: 1.18 ± 0.06 ng/mL
- Tmax [1, 5]: 1.5 ± 0.05 h
- half-life [1, 5]: 13.2 ± 0.72 h
- MRT last ([1]; oral extract 1 g/kg every day): 19.1 ± 0.82 h
- MRT inf ([1]; oral extract 1 g/kg every day): 23.3 ± 0.83 h
- Stability, Mean ± S.D., 24 h at room temperature, low QC [3]: 1.923 ± 0.076 μg·mL^−1/μg·g^−1
- Stability, Mean ± S.D., 24 h at room temperature, medium QC [3]: 51.000 ± 3.000 μg·mL^−1/μg·g^−1
- Stability, Mean ± S.D., 24 h at room temperature, high QC [3]: 102.000 ± 2.646 μg·mL^−1/μg·g^−1
- Stability, Mean ± S.D., freeze-thaw cycles, low QC [3]: 1.867 ± 0.153 μg·mL^−1/μg·g^−1
- Stability, Mean ± S.D., freeze-thaw cycles, medium QC [3]: 51.333 ± 1.528 μg·mL^−1/μg·g^−1
- Stability, Mean ± S.D., freeze-thaw cycles, high QC [3]: 102.333 ± 2.887 μg·mL^−1/μg·g^−1
Compound: O=C1C[C@@H](c2ccccc2)Oc2cc(O)cc(O)c21 [Pinocembrin]
- concentration in prostate (ranking, in words) [2]: kaempferol > pinocembrin > luteolin > puerarin

- Distribution of protoflavones: Plasma [4]: detected
Compound: O=c1c(O[C@@H]2O[C@H](CO)[C@@H](O)[C@H](O)[C@H]2O)c(-c2ccc(O)c(O)c2)oc2cc(O)cc(O)c12 [Isoquercitrin]

Source: PMC9144537, “Pharmacokinetics, Prostate Distribution and Metabolic Characteristics of Four Representative Flavones after Oral Administration of the Aerial Part of Glycyrrhiza uralensis in Rats” (Molecules, 2022)
